According to patent publication US9072734B2, “Quaternary ammonium salt compounds” (Teijin Pharma Limited, priority 2009, dated 2015):
Counter-ions that a name gives are not always drawn.

Assays:
[1] = target: T1, human M3 muscarinic receptor (Homo sapiens, UniProt P20309); assay: Competition binding assays to human M3 muscarinic receptor ([3H]-NMS displacement, membrane fractions); details: competition with 1 nM [3H]-NMS
T1 construct: expressed in transfected cells; host or cells: CHO-K1
Procedure: Membrane fractions of human M3 muscarinic receptor were purchased from PerkinElmer, Inc. and stored at −80° C. until use. Phosphate buffered saline (PBS(−), Invitrogen, Co.) was used as assay buffer. The membrane fractions of human M3 muscarinic receptor (10-15 μg of membrane protein) and 1 nM L-[N-methyl-3H]scopolamine methyl chloride ([3H]—NMS) (NET636, 2.59 TBq/mmol, PerkinElmer, Inc.) were added to a final volume of 100 μL and incubated for 2 hours at room temperature (total binding). […] The amount of nonspecific binding was determined in the presence of 5 μM atoropine. […] The filter plates were washed three times with a washing solution (50 mM Tris hydrochloric acid pH 7.4, 0.9% sodium chloride) to remove unbound radioactivity. The plates were then dried and 40 μL Microscint-20 liquid TopCount microplate scintillation cocktail (PerkinElmer Inc.) was added and plates were counted in a Packard TopCount liquid scintillation counter (PerkinElmer, Inc.). The percentage of the binding inhibition by the test compound was calculated according to the following formula. (%)Percentage of binding inhibition=[(Radioactivity of test compound-added sample−Amount of nonspecific binding)/(Amount of total binding−Amount of nonspecific binding)]×100 […]

[2] = system: acetylcholine-induced bronchoconstriction in guinea pigs; assay: Effects on acetylcholine-induced bronchoconstriction in guinea pigs; type: in vivo, guinea pig; details: Cavia porcellus; 24 hours after 25 μg/kg of the compounds were administered; read-out: percentage of bronchoconstriction suppression with respect to the acetylcholine stimulation
Procedure: These in vivo assays are used to evaluate the bronchoprotective effects based on the M3 muscarinic receptor antagonist activity and the β2 adrenergic receptor agonist activity of test compounds. Hartley male guinea pigs (Nippon SLC, Inc.) weighing about 400-500 g were used. The animals were anesthetized by inhalation of Fluothane (Takeda Pharmaceutical Company Limited) in a plastic box. The test compounds were dissolved in physiological saline containing DMSO, and administered through the nasal cavity into the trachea at a dose of 0.04-25 μg/kg and at a volume of 0.4 mL/kg. For control animals, solvent without a test compound was administered. In general, animals awake several minutes after completion of the administration. The animals were anesthetized with an intraperitoneal administration of 33% urethane/0.8% α-chloralose at a dose of 3 mL/kg. In order to intravenously administer acetylcholine or histamine, a catheter was inserted into the carotid artery. In order to measure artificial respiration and airway ventilation pressure, a cannula was inserted into the trachea. Artificial respiration was applied to the animals at a volume of 10 mL/kg and at a frequency of 60/minute, using a ventilator (Harvard Apparatus). The airway ventilation pressure was measured by the Konzett-Roessler method using a general respiratory function analysis system (M.I.P.S). Prior to administration of acetylcholine or histamine, the airway ventilation pressure was measured and baseline values were recorded. Then, physiological saline was administered through the carotid artery catheter at a volume of 0.4 mL/kg, and the airway ventilation pressure was measured. Bronchoconstrictor response was induced by administering acetylcholine (40 μg/kg, 0.4 mL/kg) or histamine (15 μg/kg, 0.4 mL/kg) through the carotid artery catheter one hour after the administration of the test compounds, and the airway ventilation pressure at the maximum contractile response was recorded. In addition, in order to evaluate duration of action of the test compounds, the above-mentioned dose of acetylcholine or histamine was administered, 1 hour, 6 hours, 12 hours, 18 hours, and 24 hours after the administration of test compounds, and the airway ventilation pressure was measured in the same way. The percentage of suppression by the test compounds with respect to the airway contractile response was calculated according to the following formula. (%) Percentage of the airway constriction suppression=(Airway ventilation pressure of test compound-dosed and acetylcholine- or histamine-dosed animals−Baseline value)/(Airway ventilation pressure of acetylcholine- or histamine-dosed animals−Baseline value)×100
The 50% inhibitory doses (ID50 values) of the test compounds were analyzed by a sigmoidal logistic model using XLfit4 (IDBS, Ltd.) for the percentage of the bronchoconstriction suppression at different doses of the test compounds.

[3] = target: T2, human β2 adrenergic receptor (Homo sapiens, UniProt P07550); assay: Whole-cell cAMP Flashplate assay using CHO-K1 cells stably expressing human β2 adrenergic receptor; type: cell-based; details: cAMP production
T2 construct: expressed in transfected cells; host or cells: CHO-K1
T2 sequence (P07550 whole entry): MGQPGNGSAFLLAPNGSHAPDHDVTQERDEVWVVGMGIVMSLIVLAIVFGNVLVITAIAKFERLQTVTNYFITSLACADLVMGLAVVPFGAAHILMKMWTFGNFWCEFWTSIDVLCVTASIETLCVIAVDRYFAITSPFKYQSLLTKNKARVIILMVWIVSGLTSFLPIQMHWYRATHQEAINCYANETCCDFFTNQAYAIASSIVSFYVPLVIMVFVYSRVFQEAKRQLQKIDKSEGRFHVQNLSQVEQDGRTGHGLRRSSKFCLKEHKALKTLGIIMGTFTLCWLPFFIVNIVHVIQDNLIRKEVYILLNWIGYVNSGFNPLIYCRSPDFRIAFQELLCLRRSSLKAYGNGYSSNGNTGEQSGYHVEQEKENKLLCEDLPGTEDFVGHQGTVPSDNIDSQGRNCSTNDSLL

T1 sequence (P20309 whole entry): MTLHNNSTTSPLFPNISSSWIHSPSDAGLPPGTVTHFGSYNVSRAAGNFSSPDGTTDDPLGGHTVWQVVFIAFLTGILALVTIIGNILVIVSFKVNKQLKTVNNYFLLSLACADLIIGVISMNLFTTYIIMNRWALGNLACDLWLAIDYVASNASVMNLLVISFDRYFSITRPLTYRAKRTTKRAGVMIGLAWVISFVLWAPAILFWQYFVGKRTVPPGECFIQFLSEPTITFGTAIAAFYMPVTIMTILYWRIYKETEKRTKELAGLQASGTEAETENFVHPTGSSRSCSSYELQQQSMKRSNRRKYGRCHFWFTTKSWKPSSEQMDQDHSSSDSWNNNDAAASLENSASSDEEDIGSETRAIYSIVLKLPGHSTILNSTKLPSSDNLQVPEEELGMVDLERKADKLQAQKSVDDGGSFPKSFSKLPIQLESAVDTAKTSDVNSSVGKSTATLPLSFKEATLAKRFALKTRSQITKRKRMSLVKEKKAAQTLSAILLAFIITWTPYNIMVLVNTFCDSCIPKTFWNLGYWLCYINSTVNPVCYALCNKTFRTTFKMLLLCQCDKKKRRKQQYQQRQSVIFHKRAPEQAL

| SMILES | IC50 [1] | inhibition in vivo at 0.025 mg/kg [2] | EC50 [3] |
| --- | --- | --- | --- |
| C[N+]1(C)CCC(OC(=O)Nc2cc(CCC(=O)Nc3ccc(CNC[C@H](O)c4ccc(O)c5[nH]c(=O)ccc45)cc3)ccc2-c2ccccc2)CC1 [Example 1, 4-({[5-(2-{[4-({[(2R)-2-hydroxy-2-(8-hydroxy-2-oxo-1,2-dihydroquinolin-5-yl)ethyl]amino}methyl)phenyl]carbamoyl}ethyl)-2-phenylphenyl]carbamoyl}oxy)-1,1-dimethylpiperidin-1-ium trifluoroacetate] | < 10 nM | ≥ 50% | 1.3 nM |
| COc1cc(NC(=O)CCCCc2ccc(-c3ccccc3)c(NC(=O)OC3CC[N+](C)(C)CC3)c2)c(Cl)cc1CNC[C@H](O)c1ccc(O)c2[nH]c(=O)ccc12 [Example 51, 4-({[5-(4-{[2-chloro-4-({[(2R)-2-hydroxy-2-(8-hydroxy-2-oxo-1,2-dihydroquinolin-5-yl)ethyl]amino}methyl)-5-methoxyphenyl]carbamoyl}butyl)-2-phenylphenyl]carbamoyl}oxy)-1,1-dimethylpiperidin-1-ium trifluoroacetate] | < 10 nM | ≥ 50% | 0.3 nM |
